# Read-outs that look alike come from different tables or passages of the source.
# Key:
# [1] = test system: HBV; assay: HBsAg inhibition in PLC/PRF/5 cells; format: cell-based; conditions: Hepatitis B virus
# Description: (§1) AB-452 and RG7834 both belong to the dihydroquinolizinones chemical class. The antiviral activities of AB-452 and its diastereomer ARB-169451 were evaluated using multiple in vitro HBV replication models, including HepG2.2.15 cells (which constitutively express HBV through the integrated viral genome), PLC/PRF/5 cells (a patient-derived hepatocellular carcinoma cell line only expressing HBsAg), and HBV-infected HepG2-NTCP cells or primary human hepatocytes (PHHs) in which viral replication was dependent on cccDNA transcription (Table 1).
# HepG2.2.15, HepAD38, and PLC/PRF/5 cells were cultured in Dulbecco’s modified Eagle medium (DMEM)/F12 medium (Corning, NY, USA), supplemented with 10% fetal bovine serum (Gemini, CA, USA), 100 U/ml penicillin, and 100 μg/ml streptomycin. Huh-7 cells (Creative Bioarray, NY, USA) were cultured in RPMI 1640 medium (Basel, Switzerland) containing 10% fetal bovine serum, 100 U/ml penicillin, and 100 μg/ml streptomycin. HepG2-hNTCP-C4 cells were cultured in DMEM medium (Gibco, MA, USA) containing 10% fetal bovine serum and 10 mM HEPES (Gibco).
# [2] = test system: HBV; assay: Multiple in vitro HBV replication models (summary statements); format: cell-based; conditions: Hepatitis B virus
# Description: as §1
# [3] = test system: HCMV; assay: Antiviral selectivity panel, CPE in MRC-5 cells; format: cell-based, human cytomegalovirus; conditions: Human betaherpesvirus 5, MRC5; MRC-5, CPE
# [4] = test system: DENV2; assay: Antiviral selectivity panel, CPE in BHK21 cells; format: cell-based, Dengue virus 2; conditions: Dengue virus, DENV2, BHK-21
# Description: HepG2.2.15 (30,000 cells/well) were plated in 96-well collagen-treated plates and incubated at 37°C. Compounds were half-log serially diluted and added in duplicate to 96-well microtiter plates. The plates were incubated for a total duration of 6 days, after which the culture medium was removed for the HBsAg and HBeAg CLIA assays (AutoBio Diagnostics Co., China) performed according to the manufacturer’s instructions. Secreted HBV DNA was extracted (Realtime Ready cell lysis kit; Roche, Mannheim, Germany) and quantified in a qPCR assay (LightCycler 480 SYBR green I master mix; Roche) with the 5′-[…]-3′ (sense) and 5′-[…]-3′ (antisense) primers using the PCR conditions of denaturing at 95°C for 5 min followed by 40 cycles of amplification at 95°C for 15 s and 60°C for 30 s. Antiviral selectivity studies against a panel of different DNA and RNA viruses were performed at ImQuest BioSicences (Frederick, MD, USA). Briefly, test compounds were evaluated using 6 doses, including the highest concentration of 30 μM and five serial half-logarithmic dilutions in triplicate for the antiviral assays.
# [5] = in vitro; format: cell-based; conditions: human
# Text: (§2) TABLE 3 Cytotoxicity of AB-452 against cells derived from various tissues | column: AB-452 CC50 (μM)
# [6] = Cytotoxicity; format: cell-based
# Text: as §2
# [7] = target: T1, recombinant human PAPD5 (Homo sapiens, UniProt Q8NDF8); assay: PAPD5 ATP depletion assay; format: biochemical; conditions: truncated recombinant human PAPD5, ATP depletion
# T1 construct: PAPD5 (amino acids 186 to 518; XM_011523275); 10xHis (N); Flag (N); TEV cleavage site (N); host or cells: E. coli BL21(DE3), vector pET-24a(+)
# Description: Molecular cloning, expression, and purification of the recombinant human PAPD5 and PAPD7 proteins were performed at Xtal BioStructures (MA, USA). PAPD5 (amino acids 186 to 518; GenBank accession no. XM_011523275) and PAPD7 (amino acids 226 to 558; GenBank accession no. NM_006999.6) genes comprising of nucleotidyltransferase and PAP-associated domains were codon optimized, synthesized, and inserted in the expression vector pET-24a(+) for E. coli expression with 10×His-Flag-tobacco etch virus (TEV) tags at the N terminus. The pET-24a(+) constructs were transformed into E. coli-competent cells BL21(DE3). […] Expression of protein was induced for 16 h with 0.2 mM IPTG (isopropyl-β-D-thiogalactopyranoside) at 18°C. […] Roche). Cell suspension was sonicated 8 × 20 s at 27 to 30 W (power level, 3.5 to 4.0) with 40-s breaks between each pulse. Lysate was cleared by centrifugation in a 50-ml conical tube at 20,000 × g for 30 min (Fiberlite F13-14 × 50cy rotor in a Sorvall RC6 centrifuge). Supernatant was incubated with Ni-charged MagBeads (GenScript; catalog no. […] Bound proteins were washed with 50 ml binding buffer and eluted in elution buffer containing a gradient of imidazole ranging from 5 to 500 mM. Peak fractions were pooled and stored in 50% glycerol at -80°C. Reactions were carried out in duplicate in 96-well low-profile, skirted, white plates (catalog no. AB0800WL; […] The reaction mixtures were incubated at room temperature for 3 h, and ATP depletion was monitored by using Kinase-Glo luminescent kinase kit following the manufacturer's instructions (catalog no. V6712; Promega, WI, USA).
# [8] = test system: HBsAg; assay: HBsAg inhibition in adenovirus-HBsAg-transduced HepG2-NTCP WT and KO clones; format: cell-based, hepatitis B virus; conditions: for EC50: Hepatitis B virus
# [9] = test system: HBV; assay: Antiviral activity in HBV-infected HepG2-NTCP WT and KO clones; format: cell-based, hepatitis B virus; conditions: for EC50: Hepatitis B virus, read-out: HBV infection EC50
# T1 sequence (Q8NDF8 106-438 limits assumed): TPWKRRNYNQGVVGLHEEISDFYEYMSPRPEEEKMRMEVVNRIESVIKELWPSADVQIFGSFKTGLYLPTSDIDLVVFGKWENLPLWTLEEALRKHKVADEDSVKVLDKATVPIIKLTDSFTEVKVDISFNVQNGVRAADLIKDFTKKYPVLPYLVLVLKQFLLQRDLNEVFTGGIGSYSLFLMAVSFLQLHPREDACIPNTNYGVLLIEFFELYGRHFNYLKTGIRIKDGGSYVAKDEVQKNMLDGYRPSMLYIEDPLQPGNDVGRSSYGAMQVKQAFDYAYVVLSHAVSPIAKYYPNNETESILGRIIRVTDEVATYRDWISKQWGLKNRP
smiles,measurement,setting,value
COCCCOc1cc2c(nc1OC)-c1cc(=O)c(C(=O)O)cn1[C@H](C(C)C)C2 [AB-452],EC50,[1],2.3 ± 0.36 nM
same,EC50,"[2]; HepG2.2.15, PLC/PRF/5, HepG2-NTCP, PHH, read-out: HBsAg, HBeAg and HBV DNA EC50 (range over models)",0.28 to 6.8 nM
same,EC50,"[2]; abstract, read-out: HBsAg EC50 in vitro (range over models)",1.4 to 6.8 nM
same,EC50,[3],> 30000 nM
same,EC50,[4],> 30000 nM
same,CC50,[5],> 30000 nM
same,CC50,"[6]; African green monkey, Vero cells (kidney)",> 30000 nM
same,CC50,"[6]; HEp2, human epithelial cells",> 30000 nM
same,CC50,"[6]; HeLa, human cervical cancer cells",> 30000 nM
same,CC50,"[6]; cattle (bovine), MDBK cells (kidney)",> 30000 nM
same,CC50,"[6]; hamster, BHK21 cells (kidney)",> 30000 nM
same,CC50,"[6]; human, CEM-SS cells (T lymphoblast)",> 30000 nM
same,CC50,"[6]; human, MRC5 cells (lung fibroblasts)",> 30000 nM
same,IC50,[7],94 nM
same,EC50,"[8]; T222, read-out: Adeno infection EC50, P7_KO (T2-22), HBsAg",7.1 ± 1.3 nM
same,EC50,"[8]; read-out: Adeno infection EC50, P5_KO (T3-4), HBsAg",71.6 ± 31.2 nM
same,EC50,"[8]; read-out: Adeno infection EC50, P5_KO (T3-15), HBsAg",56 ± 34 nM
same,EC50,"[8]; read-out: Adeno infection EC50, P7_KO (T2-8), HBsAg",10 ± 1 nM
same,EC50,"[8]; read-out: Adeno infection EC50, WT (parent) HepG2-NTCP, HBsAg",9 ± 4.6 nM
same,Adeno infection FC vs WT,[8]; P5_KO (T3-4),8.0
same,Adeno infection FC vs WT,[8]; P5_KO (T3-15),6.3
same,Adeno infection FC vs WT,[8]; P7_KO (T2-8),1.1
same,Adeno infection FC vs WT,[8]; P7_KO (T2-22),0.8
same,Adeno infection FC vs WT,[8]; WT (parent),1
same,inhibition in P5/7_DKO and Z14_KO cell lines,[8]; adenovirus-transduced and HBV-infected clones (Fig. 7D to G),did not show further inhibition than the untreated controls
same,EC50,[9]; P5_KO (T3-4),37.7 ± 8.3 nM
same,EC50,[9]; P5_KO (T3-15),39.3 ± 3.2 nM
same,EC50,[9]; P7_KO (T2-8),3.8 ± 1.5 nM
same,EC50,"[9]; T222, P7_KO (T2-22)",3.2 ± 1.9 nM
same,EC50,[9]; WT (parent) HepG2-NTCP,2.7 ± 1.8 nM
same,HBV infection FC vs WT,[9]; P5_KO (T3-4),14.0
same,HBV infection FC vs WT,[9]; P5_KO (T3-15),14.6
same,HBV infection FC vs WT,[9]; P7_KO (T2-8),1.4
same,HBV infection FC vs WT,[9]; P7_KO (T2-22),1.2
same,HBV infection FC vs WT,[9]; WT (parent),1

# From paper PMC8387043, “Host Poly(A) Polymerases PAPD5 and PAPD7 Provide Two Layers of Protection That Ensure the Integrity and Stability of Hepatitis B Virus RNA” (Journal of Virology, 2021)
